Results reported in US10722501B2 (BAYER AKTIENGESELLSCHAFT, priority 2016, dated 2020).

What follows are compounds tested against T1, recombinant full-length human prolyl endopeptidase (PREP) (Homo sapiens, UniProt P48147) (assay: Biochemical human prolyl endopeptidase (PREP) assay with fluorescently labelled substrate). Details: substrate Z-Gly-Pro-AMC 50 μM, 32° C., 60 min; some as mean values from multiple independent determinations.
T1 construct: To recombinant full-length human prolyl endopeptidase (PREP, R&D-Systems, 4308-SE); purchased R&D-Systems 4308-SE
T1 sequence (P48147 1-710): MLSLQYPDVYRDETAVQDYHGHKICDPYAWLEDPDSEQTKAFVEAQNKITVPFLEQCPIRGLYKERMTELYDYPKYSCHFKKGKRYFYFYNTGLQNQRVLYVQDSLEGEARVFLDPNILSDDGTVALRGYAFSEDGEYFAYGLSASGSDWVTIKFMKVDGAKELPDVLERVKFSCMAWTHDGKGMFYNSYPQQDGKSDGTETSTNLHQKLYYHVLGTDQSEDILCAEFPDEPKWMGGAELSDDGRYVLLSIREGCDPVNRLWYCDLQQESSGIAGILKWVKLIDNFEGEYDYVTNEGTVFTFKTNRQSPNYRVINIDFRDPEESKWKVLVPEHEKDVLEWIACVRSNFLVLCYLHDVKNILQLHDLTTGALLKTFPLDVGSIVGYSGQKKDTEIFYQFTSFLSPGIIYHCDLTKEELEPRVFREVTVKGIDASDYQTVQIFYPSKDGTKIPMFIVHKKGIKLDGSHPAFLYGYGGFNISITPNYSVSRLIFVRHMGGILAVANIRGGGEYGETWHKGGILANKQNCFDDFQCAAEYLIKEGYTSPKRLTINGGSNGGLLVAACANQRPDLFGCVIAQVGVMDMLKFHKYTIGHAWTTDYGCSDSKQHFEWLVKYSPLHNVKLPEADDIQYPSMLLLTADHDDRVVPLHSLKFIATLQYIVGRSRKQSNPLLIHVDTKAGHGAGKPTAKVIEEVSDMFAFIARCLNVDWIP
In short: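 0.4 nM (final, example) recombinant PREP in pH 7.5 Tris buffer with EDTA, GSH, BSA and Brij-35; compounds at 1 nM to 30 μM. Reaction started with 50 μM Z-Gly-Pro-AMC and followed by fluorescence (ex 360/em 465 nm) at 32° C for 60 min. IC50 interpolated from percent activity based on initial slopes.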

Row | IC50 [nM] | SMILES
1 | 3.1 | O=C(C1CC(C(F)(F)F)Cc2nn(Cc3ccnc(C(F)(F)F)c3F)c(=O)n21)N1CCC(F)(F)C1 (single isomer, unassigned) [Example 252, (5RS,7RS)-5-[(3,3-Difluoropyrrolidin-1-yl)carbonyl]-2-{[3-fluoro-2-(trifluoromethyl)pyridin-4-yl]methyl}-7-(trifluoromethyl)-5,6,7,8-tetrahydro[1,2,4]triazolo[4,3-a]pyridin-3(2H)-one]
2 | 1.4 | O=C([C@@H]1CCCc2nn(Cc3ncccc3Cl)c(=O)n21)N1CC[C@H](F)C1 [Example 393, (5S)-2-[(3-Chloropyridin-2-yl)methyl]-5-{[(3S)-3-fluoropyrrolidin-1-yl]carbonyl}-5,6,7,8-tetrahydro[1,2,4]triazolo[4,3-a]pyridin-3(2H)-one]
3 | 34 | Cc1ccc(Cn2nc3n(c2=O)[C@H](C(=O)N2CCC4CC42)CCC3)cc1 (single isomer, unassigned) [Example 189]
4 | 140 | O=C(C1CC(C(F)(F)F)Cc2nn(Cc3ccc(C(F)(F)F)nc3)c(=O)n21)N1CC(F)C(F)C1 (racemic) [Example 582, (5RS,7RS)-5-{[rel-(3R,4R)-3,4-Difluoropyrrolidin-1-yl]carbonyl}-7-(trifluoromethyl)-2-{[6-(trifluoromethyl)pyridin-3-yl]methyl}-5,6,7,8-tetrahydro[1,2,4]triazolo[4,3-a]pyridin-3(2H)-one]
5 | 0.13 | N#C[C@@H]1CCCN1C(=O)[C@@H]1CCCc2nn(Cc3ncc(Cl)cc3Cl)c(=O)n21 [Example 513, (2S)-1-({(5S)-2-[(3,5-Dichloropyridin-2-yl)methyl]-3-oxo-2,3,5,6,7,8-hexahydro[1,2,4]triazolo[4,3-a]pyridin-5-yl}carbonyl)pyrrolidine-2-carbonitrile]
6 | 1.35 | CCn1nc(C(F)(F)F)cc1Cn1nc2n(c1=O)[C@H](C(=O)N1CCC(F)(F)C1)CCC2 [Example 362, (5S)-5-[(3,3-Difluoropyrrolidin-1-yl)carbonyl]-2-{[1-ethyl-3-(trifluoromethyl)-1H-pyrazol-5-yl]methyl}-5,6,7,8-tetrahydro[1,2,4]triazolo[4,3-a]pyridin-3(2H)-one]
7 | 1.7 | Cc1ccc(Cn2nc3n(c2=O)C(C(=O)N2CCC4CC42)CCC3)cc1 (racemic) [Example 144, (5S)-5-[(cis)-2-Azabicyclo[3.1.0]hex-2-ylcarbonyl]-2-(4-methylbenzyl)-5,6,7,8-tetrahydro[1,2,4]triazolo[4,3-a]pyridin-3(2H)-one]
8 | 1.1 | CC1CCC(C(=O)N2CC[C@H](F)C2)n2c1nn(Cc1ccc(C(F)(F)F)nc1)c2=O (single isomer, unassigned) [Example 222]
9 | 1.5 | COc1cccc(Cn2nc3n(c2=O)C(C(=O)N2CCCC2)CCC3)c1 (racemic) [Example 20, (5RS)-2-(3-Methoxybenzyl)-5-(pyrrolidin-1-ylcarbonyl)-5,6,7,8-tetrahydro[1,2,4]triazolo[4,3-a]pyridin-3(2H)-one]
10 | 0.56 | Cc1ccc(Cn2nc3n(c2=O)C(C(=O)N2CCCC2)CC(C)C3)cc1 (racemic) [Example 224, (5RS,7RS)-7-Methyl-2-(4-methylbenzyl)-5-(pyrrolidin-1-ylcarbonyl)-5,6,7,8-tetrahydro[1,2,4]triazolo[4,3-a]pyridin-3(2H)-one]
11 | 0.76 | Cc1ccc(Cn2nc3n(c2=O)C(C(=O)N2CCCC2)CCC3)cc1 (racemic) [Example 25, (5RS)-2-(4-Methylbenzyl)-5-(pyrrolidin-1-ylcarbonyl)-5,6,7,8-tetrahydro[1,2,4]triazolo[4,3-a]pyridin-3(2H)-one]
12 | 2.2 | O=C(C1CC(C(F)(F)F)Cc2nn(Cc3ccc(Cl)nc3)c(=O)n21)N1CCCC1 (single isomer, unassigned) [Example 228, (5RS,7RS)-2-[(6-Chloropyridin-3-yl)methyl]-5-(pyrrolidin-1-ylcarbonyl)-7-(trifluoromethyl)-5,6,7,8-tetrahydro[1,2,4]triazolo[4,3-a]pyridin-3(2H)-one]
13 | 0.94 | Cn1ncc2cc(Cn3nc4n(c3=O)C(C(=O)N3CCCC3)CCC4)ccc21 (racemic) [Example 64, (5RS)-2-[(1-Methyl-1H-indazol-5-yl)methyl]-5-(pyrrolidin-1-ylcarbonyl)-5,6,7,8-tetrahydro[1,2,4]triazolo[4,3-a]pyridin-3(2H)-one]
14 | 970 | O=C(C1CC(C(F)(F)F)Cc2nn(Cc3ccc(C(F)(F)F)nc3)c(=O)n21)N1CC(F)C(F)C1 (single isomer, unassigned) [Example 583]
15 | 0.33 | O=C(C1CC(C(F)(F)F)Cc2nn(Cc3ncc(C(F)(F)F)cc3Cl)c(=O)n21)N1CC[C@H](F)C1 (single isomer, unassigned) [Example 563]
16 | 35 | O=C([C@@H]1CCCc2nn(Cc3cnc(C(F)(F)F)nc3)c(=O)n21)N1CC[C@H](F)C1 [Example 559, (5S)-5-{[(3S)-3-Fluoropyrrolidin-1-yl]carbonyl}-2-{[2-(trifluoromethyl)pyrimidin-5-yl]methyl}-5,6,7,8-tetrahydro[1,2,4]triazolo[4,3-a]pyridin-3(2H)-one]
17 | 12 | Cc1ccc(Cn2nc3n(c2=O)C(C(=O)N2CC(OC(F)F)C2)CCC3)cc1 (racemic) [Example 123, (5RS)-5-{[3-(Difluoromethoxy)azetidin-1-yl]carbonyl}-2-(4-methylbenzyl)-5,6,7,8-tetrahydro[1,2,4]triazolo[4,3-a]pyridin-3(2H)-one]
18 | 2.1 | O=C(C1CCCc2nn(Cc3ccc(F)c(F)c3)c(=O)n21)N1CCC(F)(F)C1 (racemic) [Example 83, (5RS)-2-(3,4-Difluorobenzyl)-5-[(3,3-difluoropyrrolidin-1-yl)carbonyl]-5,6,7,8-tetrahydro[1,2,4]triazolo[4,3-a]pyridin-3(2H)-one]
19 | 1 | COc1ncc(Cn2nc3n(c2=O)[C@H](C(=O)N2C[C@@H](F)[C@@H](F)C2)CCC3)cc1Cl [Example 442, (5S)-2-[(5-Chloro-6-methoxypyridin-3-yl)methyl]-5-{[(3R,4S)-3,4-difluoropyrrolidin-1-yl]carbonyl}-5,6,7,8-tetrahydro[1,2,4]triazolo[4,3-a]pyridin-3(2H)-one]
20 | 5.9 | O=C(C1CC(C(F)(F)F)Cc2nn(Cc3ncc(F)cc3F)c(=O)n21)N1CCC(F)(F)C1 (racemic) [Example 573, (5RS,7RS)-2-[(3,5-Difluoropyridin-2-yl)methyl]-5-[(3,3-difluoropyrrolidin-1-yl)carbonyl]-7-(trifluoromethyl)-5,6,7,8-tetrahydro[1,2,4]triazolo[4,3-a]pyridin-3(2H)-one]
21 | 1.7 | O=C([C@@H]1CCCc2nn(Cc3cc4cccnc4nc3C(F)(F)F)c(=O)n21)N1CC(F)C1 [Example 420, (5S)-5-[(3-Fluoroazetidin-1-yl)carbonyl]-2-{[2-(trifluoromethyl)-1,8-naphthyridin-3-yl]methyl}-5,6,7,8-tetrahydro[1,2,4]triazolo[4,3-a]pyridin-3(2H)-one]
22 | 4.2 | O=C([C@@H]1CCCc2nn(Cc3ccc(C(F)F)nc3)c(=O)n21)N1C[C@@H](F)[C@@H](F)C1 [Example 207, (5S)-2-{[6-(Difluoromethyl)pyridin-3-yl]methyl}-5-{[(3R,4S)-3,4-difluoropyrrolidin-1-yl]carbonyl}-5,6,7,8-tetrahydro[1,2,4]triazolo[4,3-a]pyridin-3(2H)-one]
23 | 0.91 | O=C([C@@H]1CCCc2nn(Cc3ccc(Cl)nc3)c(=O)n21)N1CC(F)C1 [Example 421, (5S)-2-[(6-Chloropyridin-3-yl)methyl]-5-[(3-fluoroazetidin-1-yl)carbonyl]-5,6,7,8-tetrahydro[1,2,4]triazolo[4,3-a]pyridin-3(2H)-one]
24 | 0.85 | O=C(C1CC(C(F)(F)F)Cc2nn(Cc3ncc(F)cc3F)c(=O)n21)N1CC[C@H](F)C1 (mixture of isomers) [Example 569, (5RS,7RS)-2-[(3,5-Difluoropyridin-2-yl)methyl]-5-{[(3S)-3-fluoropyrrolidin-1-yl]carbonyl}-7-(trifluoromethyl)-5,6,7,8-tetrahydro[1,2,4]triazolo[4,3-a]pyridin-3(2H)-one]
25 | 5.2 | O=C(C1CCCc2nn(CC3CCC(C(F)(F)F)CC3)c(=O)n21)N1CCCC1 (racemic) [Example 40, (5RS)-5-(Pyrrolidin-1-ylcarbonyl)-2-{[4-(trifluoromethyl)cyclohexyl]methyl}-5,6,7,8-tetrahydro[1,2,4]triazolo[4,3-a]pyridin-3(2H)-one]
26 | 3.4 | O=C(C1CC(C(F)(F)F)Cc2nn(Cc3ccnc(C(F)(F)F)c3F)c(=O)n21)N1CCC(F)(F)C1 (racemic) [Example 251, (5RS,7RS)-5-[(3,3-Difluoropyrrolidin-1-yl)carbonyl]-2-{[3-fluoro-2-(trifluoromethyl)pyridin-4-yl]methyl}-7-(trifluoromethyl)-5,6,7,8-tetrahydro[1,2,4]triazolo[4,3-a]pyridin-3(2H)-one]
